Results on seven molecules are retold here after US20220142913A1, “TRANSDERMAL DELIVERY FORMULATIONS” (Albert Einstein College of Medicine, priority 2020, published 2022).

This data set in a line: Loading potential / solubility of low solubility agents in PEG400/myristic acid vehicles, nitrite saturated PEG400 and water. In kind it is physicochemical. Conditions: for dissolution in Sample 3 solvent system: Sample 3: 30 ml PEG400 + 0.75 grams MA; for dissolved material in aqueous solution: aqueous sample. As for the experimental part: Vehicles for loading the active ingredient were prepared as illustrated in samples 1-4. Myristic acid (solid flakes) was dissolved in PEG400 upon warming the mixture in a warm water bath. Shaking accelerated the formation of the resulting clear solution. The following four concentrations of myristic acid (MA) in PEG400 were prepared and evaluated. Samples 1, 2, 3 and 4 were all clear solutions when the samples were allowed to attain ambient temperatures.
The samples as vehicles were loaded with NO enhancing agent. […] Samples 1 and 2 were initially liquid but formed a solid uniform gel over a period of several hours. Sample 3 was prepared by dissolving 0.75 grams of MA in 30 ml's of PEG400 and heating in a water bath (˜60-80 C) for ˜15 minutes. Sample 4 was prepared by dissolving 2.25 grams of MA in 30 mls of PEG400 and heating in a water bath (˜60-80 C) for ˜15 minutes. Both sample 3 and sample 4 were uniform solutions when the heating cycle was finished. Upon cooling sample 3 remained liquid whereas sample 4 formed a uniform gel. […]
The Sample 3 solvent system was also tested as a vehicle for loading potential with the following low solubility reagents using the above method: quercetin, berberine, N-acetyl cysteine amide (NACA) and N-acetyl cysteine ethyl ester (NAC-ethylester).
The solutions of the two lipophilic NAC derivatives were prepared using sodium nitrite saturated PEG400, resulting in a clear solution. […] NAC is water soluble and the two derivatives are marginally soluble in water. The two solutions were then treated with several drops of acetic acid to trigger the formation of nitrous acid from the nitrite which can then nitrosate the reactive thiol on both of the NAC derivatives. The solutions turned pink indicative of S-nitrosothiol formation. The solutions remained pink for several days. The corresponding aqueous solutions lost color within hours. The use of nitrite saturated PEG400 allows for formulations that can be used to generate NO and S-nitrosothiols through mixing with reagents that acidify the mixture. A double frangible pouch incorporated into a patch may be used for a sustained NO delivery vehicle suitable for topical and transdermal applications.

On to `COc1cc(/C=C/C(=O)CC(=O)/C=C/c2ccc(O)c(OC)c2)ccc1O` [Curcumin 95, curcumin], for which, under “1.5 grams Curcumin 95 in Samples 1, 2, 3 (30 ml PEG400 + myristic acid), warmed, cooled to ambient”, the “dissolving of the added curcumin” value is on record as “almost all of the added curcumin”.

Regarding `COc1ccc2cc3[n+](cc2c1OC)CCc1cc2c(cc1-3)OCO2` [berberine], the “dissolution in Sample 3 solvent system” value is “substantial dissolution” and the “dissolved material in aqueous solution” value is “minimal dissolved material”.

On to `O=c1c(O)c(-c2ccc(O)c(O)c2)oc2cc(O)cc(O)c12` [quercetin], for which the solubility of quercetin was 200-300 mg in 30 ml, the “solubilization in Sample 3” value is listed as “high degree of solubilization”, the “dissolution in Sample 3 solvent system” value was “substantial dissolution” and the “dissolved material in aqueous solution” value is on record as “minimal dissolved material”.

In the case of `COc1cc(/C=C/C(=O)CC(=O)/C=C/c2ccc(O)c(OC)c2)ccc1O` [curcumin], the “dissolution in water (colour of liquid phase)” value (same amount of curcumin in same volume of water (3 g in 30 ml)) is “almost no color in the liquid phase”.

Consider N-acetyl cysteine amide [NACA], for which the “dissolution in Sample 3 solvent system” value is listed as “substantial dissolution”.

In the case of `CCOC(=O)[C@H](CS)NC(C)=O` [NAC-ethylester, N-acetyl cysteine ethyl ester], the “dissolution in Sample 3 solvent system” value is “substantial dissolution”.

`CC(=O)N[C@@H](CS)C(=O)O` [NAC, N-acetyl cysteine]: the “solubility in sodium nitrite saturated PEG400” value was “limited solubility” and the solubility in water result is listed as “water soluble”.
